Data reported in PubChem BioAssay AID1919005 (Molecular Pharmacology Branch, DTP, NCI, 2023).

System: 855422-203-R-J1-PDC complex spheroid growth
Assay: Anticancer human tumor 855422-203-R-J1-PDC patient-derived bladder carcinoma cell line growth inhibition [AhR]
Settings: for IC50: curve of first compound; for viability, T/C: stronger effect = lower value
Method in brief: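 Spheroids combined tumor cells with HUVEC endothelial cells and human MSCs as stroma. AhR antagonists were paired with standard or investigational drugs, each dosed in half-log steps down from near clinical Cmax, or from 10 microM where Cmax was unknown.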

[1] = second compound 0.1 µM, first compound 0.0316 µM
[2] = second compound 0.1 µM, first compound 0.1 µM
[3] = second compound 0.1 µM, first compound 0.316 µM
[4] = second compound 0.1 µM, first compound 1 µM
[5] = second compound 0.1 µM, first compound 3.16 µM
[6] = second compound 0.1 µM, first compound 10 µM
[7] = second compound 0.316 µM, first compound 0.0316 µM
[8] = second compound 0.316 µM, first compound 0.1 µM
[9] = second compound 0.316 µM, first compound 0.316 µM
[10] = second compound 0.316 µM, first compound 1 µM
[11] = second compound 0.316 µM, first compound 3.16 µM
[12] = second compound 0.316 µM, first compound 10 µM
[13] = second compound 1 µM, first compound 0.0316 µM
[14] = second compound 1 µM, first compound 0.1 µM
[15] = second compound 1 µM, first compound 0.316 µM
[16] = second compound 1 µM, first compound 1 µM
[17] = second compound 1 µM, first compound 3.16 µM
[18] = second compound 1 µM, first compound 10 µM
[19] = second compound 3.16 µM, first compound 0.0316 µM
[20] = second compound 3.16 µM, first compound 0.1 µM
[21] = second compound 3.16 µM, first compound 0.316 µM
[22] = second compound 3.16 µM, first compound 1 µM
[23] = second compound 3.16 µM, first compound 3.16 µM
[24] = second compound 3.16 µM, first compound 10 µM
[25] = second compound 10 µM, first compound 0.0316 µM
[26] = second compound 10 µM, first compound 0.1 µM
[27] = second compound 10 µM, first compound 0.316 µM
[28] = second compound 10 µM, first compound 1 µM
[29] = second compound 10 µM, first compound 3.16 µM
[30] = second compound 10 µM, first compound 10 µM
[31] = second compound 0.1 µM, first compound 0.00949 µM
[32] = second compound 0.1 µM, first compound 0.03 µM
[33] = second compound 0.1 µM, first compound 0.0949 µM
[34] = second compound 0.1 µM, first compound 0.3 µM
[35] = second compound 0.316 µM, first compound 0.00949 µM
[36] = second compound 0.316 µM, first compound 0.03 µM
[37] = second compound 0.316 µM, first compound 0.0949 µM
[38] = second compound 0.316 µM, first compound 0.3 µM
[39] = second compound 1 µM, first compound 0.00949 µM
[40] = second compound 1 µM, first compound 0.03 µM
[41] = second compound 1 µM, first compound 0.0949 µM
[42] = second compound 1 µM, first compound 0.3 µM
[43] = second compound 3.16 µM, first compound 0.00949 µM
[44] = second compound 3.16 µM, first compound 0.03 µM
[45] = second compound 3.16 µM, first compound 0.0949 µM
[46] = second compound 3.16 µM, first compound 0.3 µM
[47] = second compound 10 µM, first compound 0.00949 µM
[48] = second compound 10 µM, first compound 0.03 µM
[49] = second compound 10 µM, first compound 0.0949 µM
[50] = second compound 10 µM, first compound 0.3 µM
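Also: spheroids exposed to agents for seven days before readout.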
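For viability, T/C in this document: percent of DMSO vehicle control luminescence viability.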

CC1(C)CCC(CN2CCN(c3ccc(C(=O)NS(=O)(=O)c4ccc(NCC5CCOCC5)c([N+](=O)[O-])c4)c(Oc4cnc5[nH]ccc5c4)c3)CC2)=C(c2ccc(Cl)cc2)C1 + CC(CO)NC(=O)c1cc(-c2ccc(Cl)cc2)nn(-c2cnn(C)c2)c1=O
IC50 (second compound 0.1 µM): 6.14 µM | IC50 (second compound 0.316 µM): 6.19 µM | IC50 (second compound 1 µM): 6.3 µM | IC50 (second compound 3.16 µM): 6.25 µM | IC50 (second compound 10 µM): 5.94 µM | viability, T/C [1]: 104% | viability, T/C [2]: 100% | viability, T/C [3]: 110% | viability, T/C [4]: 97.8% | viability, T/C [5]: 102% | viability, T/C [6]: 11.8% | viability, T/C [7]: 97.3% | viability, T/C [8]: 96.9% | viability, T/C [9]: 109% | viability, T/C [10]: 100% | viability, T/C [11]: 109% | viability, T/C [12]: 12.3% | viability, T/C [13]: 101% | viability, T/C [14]: 103% | viability, T/C [15]: 103% | viability, T/C [16]: 109% | viability, T/C [17]: 106% | viability, T/C [18]: 13.2% | viability, T/C [19]: 104% | viability, T/C [20]: 111% | viability, T/C [21]: 108% | viability, T/C [22]: 103% | viability, T/C [23]: 105% | viability, T/C [24]: 12.3% | viability, T/C [25]: 94.8% | viability, T/C [26]: 104% | viability, T/C [27]: 88.3% | viability, T/C [28]: 101% | viability, T/C [29]: 93.9% | viability, T/C [30]: 13.7%

CC1COCCN1c1cc(C2(S(C)(=N)=O)CC2)nc(-c2ccnc3[nH]ccc23)n1 (stereo not given) + CC(CO)NC(=O)c1cc(-c2ccc(Cl)cc2)nn(-c2cnn(C)c2)c1=O
IC50 (second compound 0.1 µM): > 10 µM | IC50 (second compound 0.316 µM): > 10 µM | IC50 (second compound 1 µM): > 10 µM | IC50 (second compound 3.16 µM): > 10 µM | IC50 (second compound 10 µM): > 10 µM | viability, T/C [1]: 90.6% | viability, T/C [2]: 88.8% | viability, T/C [3]: 92.3% | viability, T/C [4]: 92.9% | viability, T/C [5]: 134% | viability, T/C [6]: 68.3% | viability, T/C [7]: 92.2% | viability, T/C [8]: 88.2% | viability, T/C [9]: 95.2% | viability, T/C [10]: 112% | viability, T/C [11]: 136% | viability, T/C [12]: 75.4% | viability, T/C [13]: 108% | viability, T/C [14]: 100% | viability, T/C [15]: 108% | viability, T/C [16]: 111% | viability, T/C [17]: 123% | viability, T/C [18]: 60.8% | viability, T/C [19]: 93.9% | viability, T/C [20]: 98.7% | viability, T/C [21]: 107% | viability, T/C [22]: 110% | viability, T/C [23]: 123% | viability, T/C [24]: 58.9% | viability, T/C [25]: 98.6% | viability, T/C [26]: 94.9% | viability, T/C [27]: 81% | viability, T/C [28]: 95.9% | viability, T/C [29]: 104% | viability, T/C [30]: 75.2%

CCN(c1cc(-c2ccc(CN3CCOCC3)cc2)cc(C(=O)NCc2c(C)cc(C)[nH]c2=O)c1C)C1CCOCC1 + CC(CO)NC(=O)c1cc(-c2ccc(Cl)cc2)nn(-c2cnn(C)c2)c1=O
IC50 (second compound 0.1 µM): > 3 µM | IC50 (second compound 0.316 µM): > 3 µM | IC50 (second compound 1 µM): > 3 µM | IC50 (second compound 3.16 µM): > 3 µM | IC50 (second compound 10 µM): > 3 µM | viability, T/C [31]: 94.1% | viability, T/C [32]: 102% | viability, T/C [33]: 94.3% | viability, T/C [34]: 95.7% | viability, T/C (second compound 0.1 µM, first compound 0.949 µM): 86.2% | viability, T/C (second compound 0.1 µM, first compound 3 µM): 88.5% | viability, T/C [35]: 112% | viability, T/C [36]: 109% | viability, T/C [37]: 100% | viability, T/C [38]: 95.5% | viability, T/C (second compound 0.316 µM, first compound 0.949 µM): 92.1% | viability, T/C (second compound 0.316 µM, first compound 3 µM): 92.6% | viability, T/C [39]: 100% | viability, T/C [40]: 105% | viability, T/C [41]: 114% | viability, T/C [42]: 94.5% | viability, T/C (second compound 1 µM, first compound 0.949 µM): 91.9% | viability, T/C (second compound 1 µM, first compound 3 µM): 88.8% | viability, T/C [43]: 98.6% | viability, T/C [44]: 95.2% | viability, T/C [45]: 103% | viability, T/C [46]: 94.1% | viability, T/C (second compound 3.16 µM, first compound 0.949 µM): 86% | viability, T/C (second compound 3.16 µM, first compound 3 µM): 77.4% | viability, T/C [47]: 96.5% | viability, T/C [48]: 102% | viability, T/C [49]: 83.5% | viability, T/C [50]: 92.8% | viability, T/C (second compound 10 µM, first compound 0.949 µM): 103% | viability, T/C (second compound 10 µM, first compound 3 µM): 80.7%

Nc1ncn(C2CC(O)C(CO)S2)c(=O)n1 (stereo not given) + CC(CO)NC(=O)c1cc(-c2ccc(Cl)cc2)nn(-c2cnn(C)c2)c1=O
IC50 (second compound 0.1 µM): > 0.3 µM | IC50 (second compound 0.316 µM): > 0.3 µM | IC50 (second compound 1 µM): > 0.3 µM | IC50 (second compound 3.16 µM): > 0.3 µM | IC50 (second compound 10 µM): > 0.3 µM | viability, T/C (second compound 0.1 µM, first compound 0.000949 µM): 91.9% | viability, T/C (second compound 0.1 µM, first compound 0.003 µM): 90.2% | viability, T/C [31]: 88.3% | viability, T/C [32]: 93.4% | viability, T/C [33]: 96.7% | viability, T/C [34]: 87.4% | viability, T/C (second compound 0.316 µM, first compound 0.000949 µM): 97.3% | viability, T/C (second compound 0.316 µM, first compound 0.003 µM): 93.3% | viability, T/C [35]: 99.4% | viability, T/C [36]: 95.2% | viability, T/C [37]: 87.6% | viability, T/C [38]: 82.2% | viability, T/C (second compound 1 µM, first compound 0.000949 µM): 99.9% | viability, T/C (second compound 1 µM, first compound 0.003 µM): 90.9% | viability, T/C [39]: 101% | viability, T/C [40]: 92.1% | viability, T/C [41]: 101% | viability, T/C [42]: 86.7% | viability, T/C (second compound 3.16 µM, first compound 0.000949 µM): 91.8% | viability, T/C (second compound 3.16 µM, first compound 0.003 µM): 94.5% | viability, T/C [43]: 85.3% | viability, T/C [44]: 101% | viability, T/C [45]: 90.9% | viability, T/C [46]: 80.4% | viability, T/C (second compound 10 µM, first compound 0.000949 µM): 92.5% | viability, T/C (second compound 10 µM, first compound 0.003 µM): 98% | viability, T/C [47]: 87.3% | viability, T/C [48]: 93.5% | viability, T/C [49]: 89.8% | viability, T/C [50]: 80.3%
